Data: PMC8699473, “An Easily Expandable Multi-Drug LC-MS Assay for the Simultaneous Quantification of 57 Oral Antitumor Drugs in Human Plasma” (Cancers, 2021)

Test: Short-term stability in spiked pooled human plasma (bench-top, 4 °C, 56 °C)

SMILES | Short-time stability (1h, 56°C) Accuracy [%] (validation standard 2xLLOV) | Short-time stability (24h, 4°C, without daylight) Accuracy [%] (validation standard 2xLLOV) | Short-time stability (24h, RT, with daylight) Accuracy [%] (validation standard 2xLLOV) | Short-time stability (24h, RT, without daylight) Accuracy [%] (validation standard 2xLLOV) | Short-time stability (1h, 56°C) Accuracy [%] (validation standard LLOV) | Short-time stability (24h, 4°C, without daylight) Accuracy [%] (validation standard LLOV) | Short-time stability (24h, RT, with daylight) Accuracy [%] (validation standard LLOV) | Short-time stability (24h, RT, without daylight) Accuracy [%] (validation standard LLOV) | Short-time stability (1h, 56°C) Accuracy [%] (validation standard MOV) | Short-time stability (24h, 4°C, without daylight) Accuracy [%] (validation standard MOV) | Short-time stability (24h, RT, with daylight) Accuracy [%] (validation standard MOV) | Short-time stability (24h, RT, without daylight) Accuracy [%] (validation standard MOV) | Short-time stability (1h, 56°C) Accuracy [%] (validation standard ULOV) | Short-time stability (24h, 4°C, without daylight) Accuracy [%] (validation standard ULOV) | Short-time stability (24h, RT, with daylight) Accuracy [%] (validation standard ULOV) | Short-time stability (24h, RT, without daylight) Accuracy [%] (validation standard ULOV)
CS(=O)(=O)c1ccc(C(=O)Nc2ccc(Cl)c(-c3ccccn3)c2)c(Cl)c1 [Vismodegib] | 63.8% | 105.0% | 114.6% | 117.6% | 34.2% | 87.2% | 96.1% | 99.6% | 65.7% | 105.3% | 111.1% | 114.6% | 54.4% | 94.5% | 103.5% | 104.5%
O=C(Nc1cnn2ccc(N3CCC[C@@H]3c3cc(F)ccc3F)nc12)N1CC[C@H](O)C1 [Larotrectinib] | 58.9% | 104.3% | 109.3% | 102.4% | 44.4% | 107.8% | 115.6% | 100.1% | 58.2% | 99.9% | 106.3% | 110.8% | 50.9% | 98.3% | 105.3% | 104.5%
O=C1CN2Cc3c(ccc(Cl)c3Cl)N=C2N1 [Anagrelide] | 66.3% | 104.2% | 84.8% | 84.4% | 55.6% | 90.4% | 78.3% | 67.4% | 52.9% | 96.9% | 96.0% | 88.7% | 46.2% | 93.5% | 98.5% | 94.1%
COc1cc2nccc(Oc3ccc(NC(=O)C4(C(=O)Nc5ccc(F)cc5)CC4)cc3)c2cc1OC [Cabozantinib] | 49.1% | 101.8% | 103.6% |  | 30.2% | 98.5% | 91.8% |  | 51.8% | 102.2% | 104.9% |  | 44.1% | 96.1% |  | 
C#Cc1cccc(Nc2ncnc3cc(OCCOC)c(OCCOC)cc23)c1 [Erlotinib] | 61.0% | 100.7% |  | 95.3% | 69.2% | 110.4% |  | 107.4% | 52.1% | 98.0% |  | 97.9% | 45.8% | 98.7% |  | 101.0%
C[C@]12CC[C@H](O)CC1=CC[C@@H]1[C@@H]2CC[C@]2(C)C(c3cccnc3)=CC[C@@H]12 [Abiraterone] | 46.5% | 96.9% | 101.7% | 101.5% | 49.9% | 104.6% | 105.6% | 105.2% | 40.7% | 97.4% | 103.1% | 101.1% | 34.9% | 95.4% | 103.3% | 102.0%
CS(=O)(=O)CCNCc1ccc(-c2ccc3ncnc(Nc4ccc(OCc5cccc(F)c5)c(Cl)c4)c3c2)o1 [Lapatinib] | 19.2% | 96.4% | 46.9% | 53.0% | -24.8% | 92.5% | 5.2% | 14.4% | 46.1% | 97.9% | 93.5% | 109.4% | 42.5% | 94.3% | 100.7% | 112.4%
CCCS(=O)(=O)Nc1ccc(F)c(C(=O)c2c[nH]c3ncc(-c4ccc(Cl)cc4)cc23)c1F [Vemurafenib] | 41.6% | 93.0% | 92.7% | 85.9% | 34.3% | 90.0% | 93.0% | 82.9% | 39.7% | 100.4% | 89.3% | 92.1% | 34.6% | 93.8% | 91.3% | 88.2%
CN(C)C(=O)c1cc2cnc(Nc3ccc(N4CCNCC4)cn3)nc2n1C1CCCC1 [Ribociclib] | 49.7% | 98.0% | 94.2% | 92.7% | 30.6% | 87.3% | 79.3% | 81.3% | 50.5% | 98.8% | 95.0% | 93.5% | 41.5% | 84.9% | 84.8% | 83.3%
COc1cc2ncnc(Nc3ccc(F)c(Cl)c3)c2cc1OCCCN1CCOCC1 [Gefitinib] | 46.0% | 97.4% | 91.9% | 92.1% | 33.3% | 90.9% | 83.0% | 83.7% | 49.1% | 103.4% | 96.2% | 93.8% | 42.1% | 94.9% | 88.3% | 87.7%
